Values of other authors in US12527745B2, “Pharmaceutical dosage form for an emulsion of simethicone and loperamide” (R.P. SCHERER TECHNOLOGIES, LLC, priority 2018, dated 2026).

Settings: single surfactant

Substance	HLB
Polysorbate 80	15
sorbitan mono-oleate	4.3
